{
  "source": "ChEMBL document CHEMBL3217711",
  "about": "“Erythromycin B: conformational analysis and antibacterial activity” (2011)",
  "key": {"Burkholderia cepacia [1]": {"test_system": "Burkholderia cepacia", "experiment": "Antimicrobial activity against Burkholderia cepacia after 24 hrs by broth microdilution method", "assay_type": "functional, organism-based"}, "Staphylococcus aureus [2]": {"test_system": "Staphylococcus aureus", "experiment": "Antimicrobial activity against Staphylococcus aureus ACC 601065 after 24 hrs by broth microdilution method", "assay_type": "functional", "conditions": "ACC 601065, 24 h"}, "Haemophilus influenzae [3]": {"test_system": "Haemophilus influenzae", "experiment": "Antimicrobial activity against Haemophilus influenzae ATC 12699 compound preincubated with 0.1 M hydrochoric acid for 40 mins measured after 24 hrs by broth microdilution method", "assay_type": "functional"}, "Streptococcus pyogenes [4]": {"test_system": "Streptococcus pyogenes", "experiment": "Antimicrobial activity against Streptococcus pyogenes after 24 hrs by broth microdilution method", "assay_type": "functional"}, "Streptococcus pyogenes [5]": {"test_system": "Streptococcus pyogenes", "experiment": "Antimicrobial activity against Streptococcus pyogenes compound preincubated with 0.1 M hydrochoric acid for 40 mins measured after 24 hrs by broth microdilution method", "assay_type": "functional"}, "Haemophilus influenzae [6]": {"test_system": "Haemophilus influenzae", "experiment": "Antimicrobial activity against Haemophilus influenzae ATC 12699 after 24 hrs by broth microdilution method", "assay_type": "functional", "conditions": "ATC 12699, 24 h"}, "Burkholderia cepacia [7]": {"test_system": "Burkholderia cepacia", "experiment": "Antimicrobial activity against Burkholderia cepacia compound preincubated with 0.1 M hydrochoric acid for 40 mins measured after 24 hrs by broth microdilution method", "assay_type": "functional, organism-based"}, "Staphylococcus aureus [8]": {"test_system": "Staphylococcus aureus", "experiment": "Antimicrobial activity against Staphylococcus aureus ACC 601065 compound preincubated with 0.1 M hydrochoric acid for 40 mins measured after 24 hrs by broth microdilution method", "assay_type": "functional"}, "Escherichia coli [9]": {"test_system": "Escherichia coli", "experiment": "Binding affinity to Escherichia coli MRE 600 50S ribosome in 2M LiCl in buffered D2O at pH 7.4 by NMR analysis"}, "Escherichia coli [10]": {"test_system": "Escherichia coli", "experiment": "Binding affinity to Escherichia coli MRE 600 30S ribosome in 2M LiCl in buffered D2O at pH 7.4 by NMR analysis"}},
  "note": "The source made the active and inactive calls. The rule behind the calls is not given here.",
  "data": [
    {"smiles": "CC[C@H]1OC(=O)[C@H](C)[C@@H](O[C@H]2C[C@@](C)(OC)[C@@H](O)[C@H](C)O2)[C@H](C)[C@@H](O[C@@H]2O[C@H](C)C[C@H](N(C)C)[C@H]2O)[C@](C)(OC)C[C@@H](C)C(=O)[C@H](C)[C@@H](O)[C@]1(C)O", "note": "[CLARITHROMYCIN]", "values": [
      {"measurement": "MIC", "setting": "Burkholderia cepacia [1]", "result": "inactive"},
      {"measurement": "MIC", "setting": "Staphylococcus aureus [2]", "result": 0.6, "unit": "µg/mL"},
      {"measurement": "MIC", "setting": "Haemophilus influenzae [3]", "result": 1.8, "unit": "µg/mL"},
      {"measurement": "MIC", "setting": "Streptococcus pyogenes [4]", "result": 0.2, "unit": "µg/mL"},
      {"measurement": "MIC", "setting": "Streptococcus pyogenes [5]", "result": 0.3, "unit": "µg/mL"},
      {"measurement": "MIC", "setting": "Haemophilus influenzae [6]", "result": 0.6, "unit": "µg/mL"},
      {"measurement": "MIC", "setting": "Burkholderia cepacia [7]", "result": "inactive"},
      {"measurement": "MIC", "setting": "Staphylococcus aureus [8]", "result": 0.9, "unit": "µg/mL"}
    ]},
    {"smiles": "CC[C@H]1OC(=O)[C@H](C)[C@@H](O[C@H]2C[C@@](C)(OC)[C@@H](O)[C@H](C)O2)[C@H](C)[C@@H](O[C@@H]2O[C@H](C)C[C@H](N(C)C)[C@H]2O)[C@](C)(O)C[C@@H](C)C(=O)[C@H](C)[C@@H](O)[C@H]1C", "note": "[BERYTHROMYCIN]", "values": [
      {"measurement": "MIC", "setting": "Burkholderia cepacia [1]", "result": "inactive"},
      {"measurement": "MIC", "setting": "Staphylococcus aureus [2]", "result": 0.7, "unit": "µg/mL"},
      {"measurement": "MIC", "setting": "Haemophilus influenzae [3]", "result": 3.6, "unit": "µg/mL"},
      {"measurement": "Activity", "setting": "Escherichia coli [9]", "result": "Active"},
      {"measurement": "MIC", "setting": "Streptococcus pyogenes [4]", "result": 0.2, "unit": "µg/mL"},
      {"measurement": "MIC", "setting": "Streptococcus pyogenes [5]", "result": 0.3, "unit": "µg/mL"},
      {"measurement": "Activity", "setting": "Escherichia coli [10]", "result": "inactive"},
      {"measurement": "MIC", "setting": "Haemophilus influenzae [6]", "result": 2.3, "unit": "µg/mL"},
      {"measurement": "MIC", "setting": "Burkholderia cepacia [7]", "result": "inactive"},
      {"measurement": "MIC", "setting": "Staphylococcus aureus [8]", "result": 1.4, "unit": "µg/mL"}
    ]},
    {"smiles": "CC[C@H]1OC(=O)[C@H](C)[C@@H](O[C@H]2C[C@@](C)(OC)[C@@H](O)[C@H](C)O2)[C@H](C)[C@@H](O[C@@H]2O[C@H](C)C[C@H](N(C)C)[C@H]2O)[C@](C)(O)C[C@@H](C)C(=O)[C@H](C)[C@@H](O)[C@]1(C)O", "note": "[ERYTHROMYCIN]", "values": [
      {"measurement": "MIC", "setting": "Burkholderia cepacia [1]", "result": "inactive"},
      {"measurement": "MIC", "setting": "Staphylococcus aureus [2]", "result": 0.9, "unit": "µg/mL"},
      {"measurement": "MIC", "setting": "Haemophilus influenzae [3]", "result": "> 4", "unit": "µg/mL"},
      {"measurement": "MIC", "setting": "Streptococcus pyogenes [4]", "result": 0.2, "unit": "µg/mL"},
      {"measurement": "MIC", "setting": "Streptococcus pyogenes [5]", "result": 1, "unit": "µg/mL"},
      {"measurement": "MIC", "setting": "Haemophilus influenzae [6]", "result": 2.2, "unit": "µg/mL"},
      {"measurement": "MIC", "setting": "Burkholderia cepacia [7]", "result": "inactive"},
      {"measurement": "MIC", "setting": "Staphylococcus aureus [8]", "result": "> 8", "unit": "µg/mL"}
    ]}
  ]
}
